How the values were obtained:
[1] = system: MOLP-8 cells; assay: Cell proliferation assay (alamarBlue), MOLP-8; format: cell-based; conditions: Homo sapiens; MOLP-8 (multiple myeloma), 120 hours
Description: (§1) In accordance with the invention, the ability of the substances to inhibit cell proliferation was determined. Cell viability was determined by means of the alamarBlue® reagent (Invitrogen) in a Victor X3 Multilabel Reader (Perkin Elmer). The excitation wavelength was 530 nm and the emission wavelength […].
The MOLP-8 cells (DSMZ, ACC 569) were sown at a concentration of 4000 cells/well in 100 μl of growth medium (RPMI1640, 20% FCS) on 96-well microtitre plates.
(§2) After overnight incubation at 37° C., the fluorescence values were determined (CI values). Then the plates were treated with various substance dilutions (1E-5 M, 3E-6 M, 1E-6 M, 3E-7 M, 1E-7 M, 3E-8 M, 1E-8 M) and incubated at 37° C. over 96 hours (MOLM-13, B16F10, CHL-1 cells) or 120 hours (MOLP-8 cells). Subsequently, the fluorescence values were determined (CO values). For the data analysis, the CI values were subtracted from the CO values and the results were compared between cells which had been treated with various dilutions of the substance or only with buffer solution. The IC50 values (substance concentration needed for 50% inhibition of cell proliferation) were calculated therefrom.

[2] = system: B16F10 cells; assay: Cell proliferation assay (alamarBlue), B16F10; format: cell-based; conditions: Mus musculus, B16-F10; B16F10 (melanoma, BRAF wild-type), 96 hours
Description: as §1
The B16F10 cells (ATCC, CRL-6475) were sown at a concentration of 300-500 cells/well in 100 μl of growth medium (DMEM with phenol red, 10% FCS) on 96-well microtitre plates.
as §2

[3] = system: MOLM-13 cells; assay: Cell proliferation assay (alamarBlue), MOLM-13; format: cell-based; conditions: Homo sapiens; MOLM-13 (acute myeloid leukaemia), 96 hours
Description: as §1
The MOLM-13 cells (DSMZ, ACC 554) were sown at a concentration of 4000 cells/well in 100 μl of growth medium (RPMI1640, 10% FCS) on 96-well microtitre plates.
as §2

[4] = molecular target: T1, BRD4 bromo domain 1 [BRD4(1)] (Homo sapiens, UniProt O60885); assay: BRD4/acetylated peptide H4 binding assay (TR-FRET), BRD4 bromo domain 1; conditions: inhibition of BRD4(1)/Ac-H4 peptide interaction
T1 construct: N-terminally His6-tagged BRD4(1) (amino acids 67-152); made in house; host or cells: E. coli
Procedure, shortened: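 TR-FRET (665/620 nm ratio) measuring displacement of biotinylated tetra-acetylated H4 peptide from His6-BRD4(1) (aa 67-152, E. coli; typically 10 nM) at pH 7.5. Compound (11 concentrations, 0.1 nM–20 μM, duplicates) was preincubated 10 min at 22°C, then 1 h at 22°C and ≥3 h at 4°C; IC50 from 4-parameter fit normalized to DMSO and no-BRD4 controls.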

Row | SMILES | IC50 [1] [nM] | IC50 [2] [nM] | IC50 [3] [nM] | IC50 [4] [nM]
1 | C[C@@H]1C(=O)N(C)c2ccc(Nc3ccc4c(c3)S(=O)(=O)NC4)nc2N1C1CCOCC1 [Example 56, (3R)-6-[(1,1-dioxido-2,3-dihydro-1,2-benzothiazol-6-yl)amino]-1,3-dimethyl-4-(tetrahydro-2H-pyran-4-yl)-3,4-dihydropyrido[2,3-b]pyrazin-2(1H)-one] | 214 | 488 | 239 | 112
2 | C[C@@H]1C(=O)N(C)c2ccc(Nc3cccc(S(=O)(=O)N4CCOCC4)c3)nc2N1C1CCN(C)CC1 [Example 47, (3R)-1,3-dimethyl-4-(1-methylpiperidin-4-yl)-6-{[3-(morpholin-4-ylsulphonyl)phenyl]-amino}-3-4-dihydropyrido-[2,3-b]pyrazin-2(1H)-one] | 25 | 188 | 51 | 21
3 | C[C@@H]1C(=O)N(C)c2ccc(Nc3cccc(S(=O)(=O)N4CCN(CC(F)(F)F)CC4)c3)nc2N1C1CCOCC1 [Example 37, (3R)-1,3-dimethyl-4-(tetrahydro-2H-pyran-4-yl)-6-[(3-{[4-(2,2,2-trifluoroethyl)piperazin-1-yl]sulphonyl}phenyl)-amino]-3,4-dihydropyrido-[2,3-b]pyrazin-2(1H)-one] | 65 | 93 | 74 | 28
4 | CC(C)N1c2nc(Nc3cccc(S(=O)(=O)N4CCN(C)CC4)c3)ccc2N(C)C(=O)[C@H]1C [Example 43, (3R)-4-isopropyl-1,3-dimethyl-6-({3-[(4-methylpiperazin-1-yl)sulphonyl]phenyl}-amino)-3,4-dihydropyrido-[2,3-b]pyrazin-2(1H)-one] | 144 | 537 | 196 | 49
5 | C[C@@H]1C(=O)N(C)c2ccc(Nc3cccc(C(=O)NC4CCN(C)CC4)c3)nc2N1C1CCCC1 [Example 2, 3-{[(3R)-4-Cyclopentyl-1,3-dimethyl-2-oxo-1,2,3,4-tetrahydropyrido[2,3-b]pyrazin-6-yl]amino}-N-(1-methylpiperidin-4-yl)benzamide] | 114 | 442 | 352 | 94
6 | C[C@@H]1C(=O)N(C)c2ccc(Nc3cccc(S(=O)(=O)N4CCOCC4)c3)nc2N1C1CCOCC1 [Example 9, (3R)-1,3-Dimethyl-6-{[3-(morpholin-4-ylsulphonyl)phenyl]amino}-4-(tetrahydro-2H-pyran-4-yl)-3,4-dihydropyrido[2,3-b]pyrazin-2(1H)-one] | 40 | 78 | 66 | 28
7 | C[C@@H]1C(=O)N(C)c2ccc(N(C)c3cccc(S(=O)(=O)N(C)C)c3)nc2N1C1CCOCC1 [Example 54, 3-{[(3R)-1,3-dimethyl-2-oxo-4-(tetrahydro-2H-pyran-4-yl)-1,2,3,4-tetrahydropyrido[2,3-b]pyrazin-6-yl](methyl)-amino}-N,N-dimethyl-benzenesulphonamide] | 247 | 164 | 233 | 106
8 | C[C@@H]1C(=O)N(C)c2ccc(Nc3cccc(S(N)(=O)=O)c3)nc2N1C1CCOCC1 [Example 58, 3-{[(3R)-1,3-dimethyl-2-oxo-4-(tetrahydro-2H-pyran-4-yl)-1,2,3,4-tetrahydropyrido[2,3-b]pyrazin-6-yl]amino}-benzenesulphonamide] | 268 | 613 | 378 | 139
9 | C[C@@H]1C(=O)N(C)c2ccc(Nc3cccc(S(=O)(=O)N4CCN(C)CC4)c3)nc2N1C1CCNCC1 [Example 125, (3R)-1,3-dimethyl-6-({3-[(4-methylpiperazin-1-yl)sulphonyl]phenyl}amino)-4-(piperidin-4-yl)-3,4-dihydropyrido[2,3-b]pyrazin-2(1H)-one] | 719 | > 10000 | 383 | 37
10 | C[C@@H]1C(=O)N(C)c2ccc(Nc3cccc(S(=O)(=O)N4CC5(CCC5)C4)c3)nc2N1C1CCNCC1 [Example 122, (3R)-6-{[3-(2-Azaspiro[3.3]hept-2-ylsulphonyl)phenyl]amino}-1,3-dimethyl-4-(piperidin-4-yl)-3,4-dihydropyrido[2,3-b]pyrazin-2(1H)-one] | 493 | 1840 | 396 | 21
11 | C[C@@H]1C(=O)N(C)c2ccc(Nc3cccc(C(=O)N(C)C)c3)cc2N1C1CCNCC1 [Example 133, 3-{[(3R)-1,3-dimethyl-2-oxo-4-(piperidin-4-yl)-1,2,3,4-tetrahydroquinoxalin-6-yl]amino}-N,N-dimethylbenzamide] | 2010 | > 20000 | > 10000 | 124
12 | COCCN1c2nc(Nc3cccc(S(=O)(=O)N4CCN(C)CC4)c3)ccc2N(C)C(=O)C1C (racemic) [Example 53, 4-(2-methoxyethyl)-1,3-dimethyl-6-({3-[(4-methylpiperazin-1-yl)sulphonyl]phenyl}-amino)-3,4-dihydropyrido-[2,3-b]pyrazin-2(1H)-one] | 365 | 1300 | 565 | 151
13 | C[C@@H]1C(=O)N(C)c2ccc(Nc3cccc(C(=O)N[C@H]4CC[C@H](N5CCN(CC6CC6)CC5)CC4)c3)nc2N1C1CCCC1 [Example 5, 3-{[(3R)-4-Cyclopentyl-1,3-dimethyl-2-oxo-1,2,3,4-tetrahydropyrido[2,3-b]pyrazin-6-yl]amino}-N-{trans-4-[4-(cyclopropylmethyl)piperazin-1-yl]cyclohexyl}benzamide] | 136 | 506 | 326 | 99
14 | COCCN1c2nc(Nc3cccc(S(=O)(=O)N4CCOCC4)c3)ccc2N(C)C(=O)C1C (racemic) [Example 49, 4-(2-methoxyethyl)-1,3-dimethyl-6-{[3-(morpholin-4-ylsulphonyl)phenyl]amino}-3,4-dihydropyrido[2,3-b]pyrazin-2(1H)-one] | 163 | 399 | 269 | 112
15 | C[C@@H]1C(=O)N(C)c2ccc(Nc3cccc(C(=O)NC4CN(C)C4)c3)nc2N1C1CCCC1 [Example 3, 3-{[(3R)-4-Cyclopentyl-1,3-dimethyl-2-oxo-1,2,3,4-tetrahydropyrido[2,3-b]pyrazin-6-yl]amino}-N-(1-methylazetidin-3-yl)benzamide] | 187 | 695 | 296 | 91
16 | CC(C)CN1c2nc(Nc3cccc(S(=O)(=O)N[C@H]4CC[C@H](N5CCN(CC6CC6)CC5)CC4)c3)ccc2N(C)C(=O)[C@H]1C [Example 45, N-{trans-4-[4-(cyclopropylmethyl)-piperazin-1-yl]cyclohexyl}-3-{[(3R)-4-isobulyl-1,3-dimethyl-2-oxo-1,2,3,4-tetrahydropyrido[2,3-b]pyrazin-6-yl]amino}-benzenesulphonamide] | 67 | 393 | 126 | 51
17 | C[C@@H]1C(=O)N(C)c2ccc(Nc3cccc(C(=O)NC4CCN(C)CC4)c3)nc2N1Cc1ccccc1 [Example 73, 3-{[(3R)-4-benzyl-1,3-dimethyl-2-oxo-1,2,3,4-tetrahydropyrido[2,3-b]pyrazin-6-yl]amino}-N-(1-methylpiperidin-4-yl)benzamide] | 63 | 468 | 110 | 77
